Values joined by “and” are separate entries in the source; they are usually repeats but may differ in a detail not shown here. Equal values may be shown once. Read-outs that look alike come from different tables or passages of the source.
Experiments:
[1] = PAMPA
[2] = test system: SirT1 levels in N2a-E4 cells; assay: SirT1 levels by AlphaLISA in ApoE4-transfected N2a cells; type: cell-based, murine
Description: Prompted by the emerging importance of the associations between ApoE4 and the expression/protein levels of SirT1, high-throughput screening (HTS) of the UCLA compound library was performed using AlphaLISA to detect SirT1 levels in murine neuroblastoma cells stably transfected with ApoE4 (E4-N2a) to identify SirT1 enhancers. […] In the in vivo study, mice were treated orally at 40 mkd (20 mg/kg BID) for 56 days and underwent assessment of cognition in the Novel Object Recognition (NOR) testing paradigm. […] The performance of A03-treated E4-AD mice (FIG. 5A) improved to level of non-transgenic vehicle-treated mice.
Wherever PAMPA is given: unit not given here.

SMILES	PAMPA [1]	SirT1 SOμM [2]	SirT1 SμM [2]	PAMPA ([1]; PAMPA)
CC(C)(Cc1ccc(Cl)cc1)OC(=O)C(N)Cc1ccccc1 (stereo not drawn) [MP-01, 1-(4-chlorophenyl)-2-methylpropan-2-yl 2-amino-3-phenylpropanoate]	4.72	A, A (A >20%)	A, A (A >20%)	
CC(N)C(=O)OC(C)(C)Cc1ccccc1 (stereo not drawn) [MP-02, 2-methyl-1-phenylpropan-2-yl 2-aminopropanoate]	3.17	A, A (A >20%)	A, A (A >20%)	
CC(N)C(=O)OC(C)(C)Cc1ccc(F)c(F)c1 (stereo not drawn) [MP-03, 1-(3,4-difluorophenyl)-2-methylpropan-2-yl 2-aminopropanoate]	2.37	C (C = 100% increase versus control)	B (B >50%)	
CC(N)C(=O)OC(C)(C)Cc1ccc(F)cc1 (stereo not drawn) [MP-04, 1-(4-fluorophenyl)-2-methylpropan-2-yl 2-aminopropanoate]	2.75	B (B >50%)	A (A >20%)	
CC(C)CC(N)C(=O)OC(C)(C)Cc1ccc(Cl)cc1 (stereo not drawn) [MP-05, 1-(4-chlorophenyl)-2-methylpropan-2-yl 2-amino-4-methylpentanoate]	5.63	B (B >50%)	A (A >20%)	
Cc1ccc(CC(C)(C)OC(=O)C(C)N)cc1 (stereo not drawn) [MP-06, 2-methyl-1-p-tolylpropan-2-yl 2-aminopropanoate]	4.22	B (B >50%)	A (A >20%)	
CC(C)(Cc1ccc(Cl)cc1)OC(=O)CN [MP-07, 1-(4-chlorophenyl)-2-methylpropan-2-yl 2-aminoethanoate]	4.15	B (B >50%)	A (A >20%)	
CC(C)C(N)C(=O)OC(C)(C)Cc1ccc(Cl)cc1 (stereo not drawn) [MP-08, 1-(4-chlorophenyl)-2-methylpropan-2-yl 2-amino-3-methylbutanoate]	4.65	C (C = 100% increase versus control)	A (A >20%)	
CC(N)C(=O)OC1(Cc2ccc(Cl)cc2)CCC1 (stereo not drawn) [MP-09, 1-(4-chlorobenzyl)cyclobutyl 2-aminopropanoate]	4.16	A, A (A >20%)	A, A (A >20%)	
CC(N)C(=O)OC1(Cc2ccc(Cl)cc2)CCCCC1 (stereo not drawn) [MP-10, 1-(4-chlorobenzyl)cyclohexyl 2-aminopropanoate]	6.58	B (B >50%)	A (A >20%)	
CCC(C)C(N)C(=O)OC(C)(C)Cc1ccc(Cl)cc1 (stereo not drawn) [MP-11, 1-(4-chlorophenyl)-2-methylpropan-2-yl 2-amino-3-methylpentanoate]	5.28	A, A (A >20%)	A, A (A >20%)	
CC(N)C(=O)OC(C)(C)CCc1ccc(Cl)cc1 (stereo not drawn) [MP-12, 4-(4-chlorophenyl)-2-methylbutan-2-yl 2-aminopropanoate]	4.95	A, A (A >20%)	A, A (A >20%)	
CC(C)(Cc1ccc(Cl)cc1)OC(=O)C(N)CCCCN (stereo not drawn) [MP-13, 1-(4-chlorophenyl)-2-methylpropan-2-yl 2,6-diaminohexanoate]	6.49	C (C = 100% increase versus control)	A (A >20%)	
CC(N)C(=O)OC(C)(C)Cc1cc(F)cc(F)c1 (stereo not drawn) [MP-14, 1-(3,5-difluorophenyl)-2-methylpropan-2-yl 2-aminopropanoate]	2.17	A, A (A >20%)	A, A (A >20%)	
CC(N)C(=O)NC(C)(C)Cc1ccc(Cl)cc1 (stereo not drawn) [MP-15, 2-amino-N-(1-(4-chlorophenyl)-2-methylpropan-2-yl)propanamide]	2.74	B (B >50%)	A (A >20%)	
CC(C)(Cc1ccc(Cl)cc1)OC(=O)C(N)CO (stereo not drawn) [MP-16, 1-(4-chlorophenyl)-2-methylpropan-2-yl 2-amino-3-hydroxypropanoate]	2.53	A, A (A >20%)	A, A (A >20%)	
CC(C)(Cc1ccc(Cl)cc1)OC(=O)CCN [MP-17, 1-(4-chlorophenyl)-2-methylpropan-2-yl 3-aminopropanoate]	3.86	C (C = 100% increase versus control)	A (A >20%)	

SMILES	PAMPA [1]	SirT1 SOμM [2]	SirT1 SμM [2]	PAMPA ([1]; PAMPA)
C[C@H](N)CC(=O)OC(C)(C)Cc1ccc(Cl)cc1 [MP-18, (S)-1-(4-chlorophenyl)-2-methylpropan-2-yl 3-aminobutanoate]	4.01(2)	A (A >20%)	a (a <250%)	
CC(C)(Cc1ccc(Cl)cc1)OC(=O)C1CCCCN1 (stereo not drawn) [MP-19, 1-(4-chlorophenyl)-2-methylpropan-2-yl piperidine-2-carboxylate]	2.61	A, A (A >20%)	A, A (A >20%)	
CC(C)(Cc1ccc(Cl)cc1)OC(=O)C1CCCN1 (stereo not drawn) [MP-20, 1-(4-chlorophenyl)-2-methylpropan-2-yl pyrrolidine-2-carboxylate]	2.66	B (B >50%)	A (A >20%)	
CC(N)C(=O)NC(C)(C)Cc1ccc(F)c(F)c1 (stereo not drawn) [MP-22, -amino-N-(1-(3,4-difluorophenyl)-2-methylpropan-2-yl)propanamide]	1.7	C (C = 100% increase versus control)	A (A >20%)	
CNC(C)C(=O)OC(C)(C)Cc1ccc(Cl)cc1 (stereo not drawn) [MP-23, 1-(4-chlorophenyl)-2-methylpropan-2-yl 2-(methylamino)propanoate]	3.03	a, a (a <250%)	a, a (a <250%)	
CC(C)(Cc1ccc(F)c(F)c1)NC(=O)C1CCCN1C(=O)OC(C)(C)C (stereo not drawn) [MP-24, tert-butyl 2-(1-(3,4-difluorophenyl)-2-methylpropan-2-ylcarbamoyl)pyrrolidine-1-carboxylate]	1.27	a, a (a <250%)	a, a (a <250%)	
CC(C)(Cc1ccc(F)c(F)c1)NC(=O)C1CCCN1 (stereo not drawn) [MP-25, N-(1-(3,4-difluorophenyl)-2-methylpropan-2-yl)pyrrolidine-2-carboxamide]	1.23(2)	B (B >50%)	A (A >20%)	
CC(N)C(=O)OC(Cc1ccc(Cl)cc1)c1ccccc1 (stereo not drawn) [MP-26]	3.45	A, A (A >20%)	A, A (A >20%)	
C[C@@H](N)C(=O)NC(C)(C)Cc1ccc(Cl)cc1 [MP-27, (R)-2-amino-N-(1-(4-chlorophenyl)-2-methylpropan-2-yl)propanamide]	2.72	a, a (a <250%)	a, a (a <250%)	
C[C@H](N)C(=O)NC(C)(C)Cc1ccc(Cl)cc1 [MP-28, (S)-2-amino-N-(1-(4-chlorophenyl)-2-methylpropan-2-yl)propanamide]	2.78 and 2.86	B (B >50%)	A (A >20%)	
CC(C)(Cc1ccc(Cl)cc1)NC(=O)C(C)(C)N [MP-29, 2-amino-N-(1-(4-chlorophenyl)-2-methylpropan-2-yl)-2-methylpropanamide]	2.1	a, a (a <250%)	a, a (a <250%)	
C[C@H](N)C(=O)NC(C)(Cc1ccc(Cl)cc1)c1ccc(Br)cc1 (stereo partly drawn) [MP-30]	2.89	A, A (A >20%)	A, A (A >20%)	
C[C@H](N)C(=O)OC1(Cc2ccc(Cl)cc2)CCCC1 [MP-34, 1-(4-chlorobenzyl)cyclopentyl alaninate]	4.92	A, A (A >20%)	A, A (A >20%)	
C[C@H](N)C(=O)NC(C)(C)Cc1ccc(F)c(F)c1 [MP-35, (S)-2-amino-N-(1-(3,4-difluorophenyl)-2-methylpropan-2-yl)propanamide]	1.7	A, A (A >20%)	A, A (A >20%)	
C[C@@H](N)C(=O)NC(C)(C)Cc1ccc(F)c(F)c1 [MP-36, (R)-2-amino-N-(1-(3,4-difluorophenyl)-2-methylpropan-2-yl)propanamide]	1.66	a, a (a <250%)	a, a (a <250%)	
CC(C)(Cc1ccc(F)c(F)c1)NC(=O)[C@@H](N)c1ccccc1 [MP-37]		a (a <250%)	A (A >20%)	1.81
